Experiment [1] relates to HLA-A*02:01 transgenic mouse. Kind of experiment: Test 12: in vivo adjuvant activity, cocktail vaccine g (emulsified composition 2), IFNγ ELISPOT. The note with it: added to cocktail vaccine g (emulsified composition 2); 0.04 nmol or 0.4 nmol per body, twice; FIG. 12 and 13. As to the method:
Evaluation of In Vivo Adjuvant Activity in HLA-A*02:01 Transgenic Mouse
The in vivo adjuvant activity of the compound of Example 1 was evaluated in the following procedure. To a cocktail vaccine (emulsified composition 2) comprising Compound of formula 4 prepared in Reference example 8 and Peptide SEQ ID No. 3 prepared in Reference example 3 (hereinafter, referred to as “cocktail vaccine g”) was added the compound prepared in Example 1 to prepare a vaccine. The vaccine was administered to a HLA-A*02:01 transgenic mouse, and the adjuvant activity of the vaccine was evaluated by the method of testing antigen-specific CTL induction.
For example, the above emulsified composition 2 was prepared as follows. 95.8% (w/w) of medium-chain triglyceride (MYGLYOL 812), 3% (w/w) of PEG-30 dipolyhydroxy stearate, and 1.2% (w/w) of polysorbate 80 were mixed to prepare an oil-phase mixture. The amount of the preparation was adjusted as appropriate. Compound of formula 4 and Peptide SEQ ID No. 3 were mixed with pH 2.5 buffer (10 mM tartaric acid, 10% trehalose) to adjust each concentration to 3 mg/mL and 2.25 mg/mL, respectively. The prepared peptide dilution was mixed with an equal volume of the oil-phase mixture to give an emulsified product, cocktail vaccine g. […] Then, after removal of the supernatant from the wells, stained spots on the ELISPOT plate were counted.

The subject of experiment [2] is HLA-A*02:01 transgenic mouse. In words: Test 4: in vivo adjuvant activity, cocktail vaccine a, IFNγ ELISPOT. As to the method: Evaluation of in vivo adjuvant activity in HLA-A*02:01 transgenic mouse
The in vivo adjuvant activity of the compound of Example 1 and the compound of Reference example 12 was evaluated in the following procedure. To a cocktail vaccine comprising Compound of formula 4 prepared in Reference example 8 and Peptide SEQ ID No. 3 prepared in Reference example 3 with a preliminarily-emulsified composition (hereinafter, referred to as “cocktail vaccine a”) was added the compound prepared in Example 1 or the compound prepared in Reference example 12 respectively to prepare each vaccine. The vaccine was administered to a HLA-A*02:01 transgenic mouse, and the adjuvant activity of each vaccine was evaluated by the method of testing antigen-specific CTL induction.
The RMFPNAPYL (SEQ ID No. 1) in Compound of formula 4 and the VLDFAPPGA (SEQ ID No. 4) in Peptide SEQ ID No. 3 correspond to antigen peptides derived from an HLA-A*02:01-restricted WT1 protein.
HLA-A*02:01 transgenic mouse (C57BL/6CrHLA-A2.1DR1) lacks mouse MHC, and instead expresses a chimeric HLA of a human MHC (HLA-A*02:01) and a mouse MHC (H-2D^b), and HLA-DRB1*01:01. […]
The character for inducing CTLs specific to the antigen peptide (SEQ ID No. 1 or SEQ ID No. 4) by cocktail vaccine a was evaluated by measuring whether IFNγ can be produced upon stimulation of splenocytes from the mouse with the corresponding peptide. […]

Consider `CCCCCNc1nc(N)nc(C)c1Cc1ccc(CN(C)CCOCCOCCOCCOCCO)cc1OC` [Example 1, 1-(4-{[2-amino-4-methyl-6-(pentylamino)pyrimidin-5-yl]methyl}-3-methoxyphenyl)-2-methyl-5,8,11,14-tetraoxa-2-azahexadecan-16-ol·trifluoroacetate], for which the “CTL counts responsive to Peptide SEQ ID No. 1 or SEQ ID No. 4 compared with adding no compound” value in experiment [1] was “more”. Besides, the “CTL counts responsive to Peptide of SEQ ID No. 1 or SEQ ID No. 4 compared with Reference example 12” value in experiment [2] (added to cocktail vaccine a, 32.5 ng Example 1 vs 22.5 ng Reference example 12 per body) is “more”. Moreover, the “induced CTL count on adding the compound to the vaccine” value in experiment [2] (cocktail vaccine a, 32.5 ng Example 1 per body) is “increases”.
